For assay [1], the target named is T1, SOS (Homo sapiens, UniProt Q07889).
T1 sequence (Q07889 1-1333): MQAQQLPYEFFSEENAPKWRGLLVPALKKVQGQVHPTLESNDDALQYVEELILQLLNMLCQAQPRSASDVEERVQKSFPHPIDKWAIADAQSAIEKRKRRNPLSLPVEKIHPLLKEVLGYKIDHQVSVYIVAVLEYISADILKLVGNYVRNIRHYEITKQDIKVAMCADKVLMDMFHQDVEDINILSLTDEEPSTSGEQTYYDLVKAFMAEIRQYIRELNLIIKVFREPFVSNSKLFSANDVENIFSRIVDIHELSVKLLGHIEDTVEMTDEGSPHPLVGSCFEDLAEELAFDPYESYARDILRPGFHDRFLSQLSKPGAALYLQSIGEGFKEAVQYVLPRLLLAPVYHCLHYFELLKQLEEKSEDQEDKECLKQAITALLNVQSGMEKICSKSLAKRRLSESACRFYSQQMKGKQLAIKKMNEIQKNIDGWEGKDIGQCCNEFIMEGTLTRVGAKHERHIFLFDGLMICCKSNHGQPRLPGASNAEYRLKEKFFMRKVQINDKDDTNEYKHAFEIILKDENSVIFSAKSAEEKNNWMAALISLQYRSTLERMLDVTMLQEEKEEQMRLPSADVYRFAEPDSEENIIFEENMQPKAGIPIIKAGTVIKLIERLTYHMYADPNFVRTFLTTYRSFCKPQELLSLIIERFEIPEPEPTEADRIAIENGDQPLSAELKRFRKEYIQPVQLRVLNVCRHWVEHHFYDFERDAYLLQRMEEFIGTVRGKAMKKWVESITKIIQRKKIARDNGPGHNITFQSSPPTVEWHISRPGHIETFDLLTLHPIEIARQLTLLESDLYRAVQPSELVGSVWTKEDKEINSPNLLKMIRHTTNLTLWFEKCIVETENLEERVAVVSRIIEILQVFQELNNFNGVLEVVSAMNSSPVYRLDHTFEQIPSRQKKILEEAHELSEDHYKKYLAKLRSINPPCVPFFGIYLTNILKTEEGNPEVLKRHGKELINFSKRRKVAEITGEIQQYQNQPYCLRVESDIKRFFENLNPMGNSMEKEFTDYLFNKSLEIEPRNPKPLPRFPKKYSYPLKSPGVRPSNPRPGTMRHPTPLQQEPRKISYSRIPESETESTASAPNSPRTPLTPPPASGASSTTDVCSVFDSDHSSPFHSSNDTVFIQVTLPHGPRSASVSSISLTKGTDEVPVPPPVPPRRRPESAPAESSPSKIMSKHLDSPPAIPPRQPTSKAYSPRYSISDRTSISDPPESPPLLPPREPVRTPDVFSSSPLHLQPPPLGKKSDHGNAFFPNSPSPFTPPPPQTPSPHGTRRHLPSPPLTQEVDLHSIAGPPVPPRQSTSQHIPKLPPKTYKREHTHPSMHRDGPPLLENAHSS
Put plainly: Surface plasmon resonance (SPR), SOS. The note with it: SOS alone. The class given is binding. A general note: In SPR one partner is held on a chip, and binding of the other changes the refractive index at the surface.

The subject of assay [2] is K-RAS4B wild-type. Briefly: Nucleotide exchange assay (SOS1-mediated GDP/GTP exchange, GDP-Glo), K-RAS4B wild-type. It counts as biochemical. Conditions: GDP/GTP exchange IC50 of wild-type versus G12D/G12V mutants.
Assay [3] addresses K-RAS4B wild-type (Homo sapiens, UniProt P01116). The assay is described as above. It counts as biochemical. Conditions: K-RAS4B GDP/GTP exchange; eight data points, at least three determinations; (*) single determination.
The target of assay [4] is T2, K-RAS4B^G12D (Homo sapiens, UniProt P01116, G12D). Briefly: Surface plasmon resonance (SPR), K-RAS4B^G12D. It counts as binding. Conditions: K-RAS4B^G12D alone.
In assay [5] the target is K-RAS4B G12V (Homo sapiens, UniProt P01116, G12V). Put plainly: Nucleotide exchange assay (SOS1-mediated GDP/GTP exchange, GDP-Glo), K-RAS4B G12V. The class given is biochemical. The note with it: eight data points, at least three determinations, (*) single determination.
The target of assay [6] is T2, K-RAS4B^G12D. Briefly: biochemical. Conditions: K-RAS4B GDP/GTP exchange; eight data points, at least three determinations.

T2 sequence (P01116 1-188 isoform P01116-2 G12D): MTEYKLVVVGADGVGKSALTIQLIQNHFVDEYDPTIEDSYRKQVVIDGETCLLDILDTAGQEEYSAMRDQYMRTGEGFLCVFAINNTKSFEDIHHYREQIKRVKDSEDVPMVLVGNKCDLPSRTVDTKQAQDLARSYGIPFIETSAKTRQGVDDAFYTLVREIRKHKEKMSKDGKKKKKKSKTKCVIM
Sequence of K-RAS4B G12V (P01116 1-188 isoform P01116-2 G12V): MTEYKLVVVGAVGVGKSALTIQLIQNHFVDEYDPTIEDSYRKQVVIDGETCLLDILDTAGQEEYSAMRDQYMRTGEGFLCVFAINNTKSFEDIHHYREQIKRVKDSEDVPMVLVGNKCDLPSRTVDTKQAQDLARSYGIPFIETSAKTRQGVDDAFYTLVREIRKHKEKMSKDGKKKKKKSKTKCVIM
Sequence of K-RAS4B wild-type (Homo sapiens, UniProt P01116) (P01116 1-188 isoform P01116-2): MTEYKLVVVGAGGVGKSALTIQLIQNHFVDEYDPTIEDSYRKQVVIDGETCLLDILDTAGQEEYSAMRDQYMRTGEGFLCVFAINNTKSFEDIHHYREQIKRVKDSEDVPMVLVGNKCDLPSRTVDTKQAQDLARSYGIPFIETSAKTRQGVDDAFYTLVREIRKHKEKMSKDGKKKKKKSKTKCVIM

As usually defined, the Kd is the equilibrium constant for the complex coming apart. A low value points to higher affinity. The term IC50 denotes the concentration at which inhibition is half-maximal. A lower IC50 goes with higher potency. For the compound `C=C(C)[C@@H]1CC[C@]2(C(=O)O)CC[C@]3(C)[C@H](CC[C@@H]4[C@@]5(C)CC[C@H](OC(=O)CC(C)(C)C(=O)O)C(C)(C)[C@@H]5CC[C@]43C)[C@@H]12` [Compound 28, bevirimat, reference compound], the Kd is over 1000 µM in assay [1] and over 300 µM in assay [4]. In addition, the “selectivity factor, mutant versus K-RAS4B^wt” value in assay [2] is given as 3–4. Besides, the results for the IC50 in assay [3], in assay [5] and in assay [6] were 2.15 ± 0.17 µM, 0.61 ± 0.14 µM and 0.59 ± 0.19 µM, respectively.

The record behind these values is PMC11719397, “Monophthalates of betulinic acid and related pentacyclic triterpenes inhibit efficiently the SOS-mediated nucleotide exchange and impact PI3K/AKT signaling in oncogenic K-RAS4B proteins” (RSC Advances, 2025).
